Assay results taken from publication PMC7155171, “Probing the Open Global Health Chemical Diversity Library for Multistage-Active Starting Points for Next-Generation Antimalarials” (ACS Infectious Diseases, 2020).
Where two headings read alike, the source gives them in different places.

What was measured:
[1] = system: P. falciparum Dd2 (PfLuc) line expressing firefly luciferase, asexual blood stage; experiment: microbe, parasite or virus in culture; type: cell-based, Plasmodium falciparum; conditions: Plasmodium falciparum
[2] = system: P. falciparum Dd2; experiment: SYBR green I asexual blood stage proliferation assay (96 h); type: cell-based, Plasmodium falciparum; conditions: Plasmodium falciparum, DD2, 11-pt dose response, 96hr
[3] = DD2, read-out: CDD P. falciparum Luciferase ABS 11-pt Reconfirmation Dose Response (48hr): IC50 (μM), 11-pt dose response, 48hr
[4] = DD2, 8-pt dose response, 96hr, read-out: CDD P. falciparum Luciferase ABS 8-pt Reconfirmation Dose Response (96hr): IC50
[5] = DD2, 8-pt dose response, 96hr, read-out: CDD P. falciparum Luciferase ABS 8-pt Reconfirmation Dose Response (96hr): Maximum inhibition (%)
[6] = DD2, 11-pt dose response, 48hr, read-out: CDD P. falciparum Luciferase ABS 11-pt Reconfirmation Dose Response (48hr): Maximum inhibition (%)
[7] = DD2, 11-pt dose response, 96hr, read-out: CDD P. falciparum Luciferase ABS 11-pt Reconfirmation Dose Response (96hr): IC50
[8] = DD2, 11-pt dose response, 96hr, read-out: CDD P. falciparum Luciferase ABS 11-pt Reconfirmation Dose Response (96hr): Maximum inhibition (%)
[9] = Sybr Green I, read-out: CDD P. falciparum Sybr Green I ABS 11-pt Reconfirmation Dose Response (96hr): IC50
[10] = Sybr Green I, read-out: CDD P. falciparum Sybr Green I ABS 11-pt Reconfirmation Dose Response (96hr): Maximum inhibition (%)

## NC1(C(=O)NCC2CCCN(Cc3ccccc3F)C2)CCCC1 (centres unmarked) [DDD01249015]
[1]; [3]
  IC50: > 12.5 µM
[1]; [4]
  IC50: 0.62 µM
[1]; [5]
  Emax: 89.1%
[1]; [6]
  Emax: 55.5%
[1]; [7]
  IC50: 1.47 µM
[1]; [8]
  Emax: 87.8%
[2]; [9]
  IC50: > 4.16 µM
[2]; [10]
  Emax: 77.3%

## CN(C)CCN(C)C(=O)Cn1cccc2cc(-c3ccc(F)cc3)nc1-2 [DDD01059044]
[1]; [3]
  IC50: 1.87 µM
[1]; [4]
  IC50: 0.54 µM
[1]; [5]
  Emax: 95.7%
[1]; [6]
  Emax: 95.1%
[1]; [7]
  IC50: 1.9 µM
[1]; [8]
  Emax: 98.3%
[2]; [9]
  IC50: 1.17 µM
[2]; [10]
  Emax: 99.6%

## CC(=O)N(c1ccc(F)cc1)c1nc(CN2CCCC2C(C)C)cs1 (centres unmarked) [DDD01075305]
[1]; [3]
  IC50: 6.08 µM
[1]; [4]
  IC50: 0.65 µM
[1]; [5]
  Emax: 84.5%
[1]; [6]
  Emax: 57.5%
[1]; [7]
  IC50: 2.69 µM
[1]; [8]
  Emax: 92.1%
[2]; [9]
  IC50: > 4.16 µM
[2]; [10]
  Emax: 62.8%

## CCN1CCC2(CC1)CC(NCc1cccs1)c1ccccc1O2 (centres unmarked) [DDD01034117]
[1]; [3]
  IC50: 2.44 µM
[1]; [4]
  IC50: 0.39 µM
[1]; [5]
  Emax: 91.4%
[1]; [6]
  Emax: 72.4%
[1]; [7]
  IC50: 0.515 µM
[1]; [8]
  Emax: 91.9%
[2]; [9]
  IC50: 3.4 µM
[2]; [10]
  Emax: 78.6%

## COCCN1CCC2(CC1)CC(NCc1ccc(C)s1)c1ccccc12 (centres unmarked) [DDD01082023]
[1]; [3]
  IC50: 7.58 µM
[1]; [4]
  IC50: 0.63 µM
[1]; [5]
  Emax: 90%
[1]; [7]
  IC50: 1.55 µM
[1]; [8]
  Emax: 96.4%
[2]; [9]
  IC50: 2.42 µM
[2]; [10]
  Emax: 82.4%

## c1cc2c(cc1C1(CNC3=NCCN3)CCCC1)OCCO2 [DDD01067440]
[1]; [3]
  IC50: 8.77 µM
[1]; [4]
  IC50: 0.57 µM
[1]; [5]
  Emax: 86.8%
[1]; [6]
  Emax: 68.7%
[1]; [7]
  IC50: 1.63 µM
[1]; [8]
  Emax: 92%
[2]; [9]
  IC50: 1.24 µM
[2]; [10]
  Emax: 65.6%

## CN(C)[C@@H]1CCN(c2ncccn2)[C@H]1Cc1ccccc1 [DDD01036700]
[1]; [3]
  IC50: > 12.5 µM
[1]; [4]
  IC50: 0.85 µM
[1]; [5]
  Emax: 85.6%
[1]; [6]
  Emax: 47.6%
[1]; [7]
  IC50: 2.4 µM
[1]; [8]
  Emax: 80.9%
[2]; [9]
  IC50: > 4.16 µM
[2]; [10]
  Emax: 74.7%

## CO[C@H]1CN(C(C)C)C[C@@H]1NC(=O)c1cc(-c2ccccc2O)n[nH]1 [DDD01257008]
[1]; DD2, read-out: P. falciparum Luciferase ABS 11-pt Reconfirmation Dose Response (48hr): IC50, 11-pt dose response, 48hr
  IC50: 7.18 µM
[1]; DD2, 8-pt dose response, 96hr, read-out: P. falciparum Luciferase ABS 8-pt Reconfirmation Dose Response (96hr): IC50
  IC50: 1.29 µM
[1]; DD2, 8-pt dose response, 96hr, read-out: P. falciparum Luciferase ABS 8-pt Reconfirmation Dose Response (96hr): Maximum inhibition (%)
  Emax: 94.7%
[1]; DD2, 11-pt dose response, 48hr, read-out: P. falciparum Luciferase ABS 11-pt Reconfirmation Dose Response (48hr): Maximum inhibition (%)
  Emax: 87.1%
[1]; DD2, 11-pt dose response, 96hr, read-out: P. falciparum Luciferase ABS 11-pt Reconfirmation Dose Response (96hr): IC50
  IC50: 3.21 µM
[1]; DD2, 11-pt dose response, 96hr, read-out: P. falciparum Luciferase ABS 11-pt Reconfirmation Dose Response (96hr): Maximum inhibition (%)
  Emax: 97.2%
[2]; read-out: P. falciparum Sybr Green I ABS 11-pt Reconfirmation Dose Response (96hr): IC50
  IC50: 4.52 µM
[2]; read-out: P. falciparum Sybr Green I ABS 11-pt Reconfirmation Dose Response (96hr): Maximum inhibition (%)
  Emax: 94.2%

## Cc1nn(C)cc1C1=NS(=O)(=O)N(C)C(C(=O)Nc2ccc(Cl)cc2)=C1 [DDD01058696]
[1]; [3]
  IC50: 1.23 µM
[1]; [4]
  IC50: 0.34 µM
[1]; [5]
  Emax: 96.1%
[1]; [6]
  Emax: 100%
[1]; [7]
  IC50: 0.511 µM
[1]; [8]
  Emax: 101%
[2]; [9]
  IC50: 0.705 µM
[2]; [10]
  Emax: 98.7%

## Cc1ccc(CNC2CC3(CCN(CCO)CC3)c3ccccc32)s1 (centres unmarked) [DDD01082017]
[1]; [3]
  IC50: 3.82 µM
[1]; [4]
  IC50: 0.41 µM
[1]; [5]
  Emax: 91%
[1]; [6]
  Emax: 80.4%
[1]; [7]
  IC50: 1.07 µM
[1]; [8]
  Emax: 98%
[2]; [9]
  IC50: 2.9 µM
[2]; [10]
  Emax: 89.2%

## Cc1cc(Br)cnc1NCCN1CCC(N(C)C)CC1 [DDD01079597]
[1]; [3]
  IC50: 7.01 µM
[1]; [4]
  IC50: 0.51 µM
[1]; [5]
  Emax: 92.4%
[1]; [6]
  Emax: 87.3%
[1]; [7]
  IC50: 1.15 µM
[1]; [8]
  Emax: 99.5%
[2]; [9]
  IC50: 3.19 µM
[2]; [10]
  Emax: 92.7%

## CCN1CCN(c2ccc(F)cc2C(C)NCc2ccccn2)CC1 (centres unmarked) [DDD01070491]
[1]; [3]
  IC50: > 12.5 µM
[1]; [4]
  IC50: 0.83 µM
[1]; [5]
  Emax: 82.8%
[1]; [6]
  Emax: 53%
[1]; [7]
  IC50: 1.9 µM
[2]; [9]
  IC50: > 4.16 µM
[2]; [10]
  Emax: 73.8%

## OC(CNCc1ccccc1C(F)(F)F)c1ccccc1 (centres unmarked) [DDD01254021]
[1]; [3]
  IC50: 4.82 µM
[1]; [4]
  IC50: 0.87 µM
[1]; [5]
  Emax: 91.4%
[1]; [6]
  Emax: 84.3%
[1]; [7]
  IC50: 1.76 µM
[1]; [8]
  Emax: 97.4%
[2]; [9]
  IC50: 3.66 µM
[2]; [10]
  Emax: 87.9%

## N[C@@H]1CCC[C@@H](Oc2ccc(F)cc2Oc2ccccc2)[C@@H]1O [DDD01059731]
[1]; [3]
  IC50: > 1.4 µM
[1]; [4]
  IC50: 0.69 µM
[1]; [5]
  Emax: 93.5%
[1]; [6]
  Emax: 89.8%
[1]; [7]
  IC50: > 1.39 µM
[1]; [8]
  Emax: 98.4%
[2]; [9]
  IC50: 4.96 µM
[2]; [10]
  Emax: 86.9%
